Activity calls are given as the source filed them.
Key:
[1] = A cytotoxicity screen of small molecule inhibitors of the PhoP region in Salmonella typhi identified in the primary screen. [Related pubchem assays: 1850, 1864, 1985 ]; assay type: functional
cells [2] = assay: cells
[3] = cytotoxicity toward NIH3T3 fibroblasts, dose response, counter-screen, cell-based, ATP luminescence, mouse fibroblasts (AID 2010); assay type: functional;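 note: cells exposed to compound for about 90 hours before reading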
[4] = inhibitors of intracellular T. cruzi replication, confirmation, NIH3T3 host cells, beta-gal luminescence (AID 2044); assay type: functional, cell-based;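 note: intracellular parasites grown in NIH/3T3 mouse fibroblasts as host cells; luminescent beta-galactosidase reporter signal from transgenic T. cruzi replicating inside host cells; inhibitors lower the luminescence signal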
INS1 = assay: beta cell apoptosis inhibitors, cytokine rescue, dose response, luminescence, retest (AID 449756); assay type: functional, cell-based; conditions: Rattus norvegicus;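 note: cell death triggered by IL-1 beta plus TNF-alpha plus IFN-gamma mixture; protective hits raise ATP signal compared with cytokine alone wells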
[5] = MC4R antagonists, dose response, counter-screen for LGR2 antagonist project, cell-based, plate reader, cherry pick (AID 743444); assay type: functional;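 note: transfected HEK 293 cells stimulated with alpha-MSH peptide; potency of inhibitors of the alpha-MSH evoked signal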
[6] = molecular target: Peroxisome proliferator-activated receptor gamma/Nuclear receptor coactivator 3 (Homo sapiens, UniProt P37231); assay: TR-FRET dose response biochemical High Throughput Screening assay for agonists of the steroid receptor coactivator 3 (SRC-3) recruitment by the peroxisome proliferator-activated receptor gamma (PPAR gamma): non-selective agonists. [Related pubchem assays: 1301 (Confirmation screen.), 1048 (Primary screen.)]; assay type: functional
[7] = molecular target: Peroxisome proliferator-activated receptor gamma/Nuclear receptor coactivator 2 (Homo sapiens, UniProt P37231); assay: (§1) TR-FRET dose response biochemical High Throughput Screening assay for agonists of the steroid receptor coactivator 2 (SRC-2) recruitment by the peroxisome proliferator-activated receptor gamma (PPAR gamma): non-selective agonists. [Related pubchem assays: 1297, 1032 ]; assay type: functional
[8] = molecular target: Peroxisome proliferator-activated receptor gamma/Nuclear receptor coactivator 1 (Homo sapiens, UniProt P37231); assay: as §1, with “1 (SRC-1)” for “2 (SRC-2)”, “assays (depositor defined):AID1300, AID1808, AID504735, AID631]” for “assays: 1297, 1032 ]”; assay type: protein assay
[9] = HepG2 cell cytotoxicity, dose response, cytotoxicity control, ATP luminescence, cherry-pick, activator set 2 (AID 1053143); assay type: functional, cell-based
cells [10] = assay type: functional, cell-based
[11] = cytotoxicity toward DRD oncogenic fibroblasts, dose response, cell-based, non-viral oncogenic, luminescence (AID 1934); assay type: functional; conditions: Homo sapiens
BJ [12] = assay: cells; assay type: functional, cell-based; conditions: Homo sapiens
cells [13] = assay type: functional, cell-based; remark: listed apart in the source
[14] = Luminescence Cell-Based Dose Response HTS to Identify Inhibitors of 5'UTR Stem-Loop Driven Prion Protein mRNA Translation in H4 Neuroglioblastoma Cells. [Related pubchem assays: 1827 (Project Summary), 1813 (Primary HTS)]; assay type: functional
Nonstructural protein 1 = Nonstructural protein 1 (Influenza A virus, UniProt Q194T2); assay type: functional, Influenza A virus (A/California/07/2009(H1N1))
BJ [15] = assay: cytotoxicity toward BJ-TERT-LT-ST fibroblasts, dose response, cell-based, RAS-independent, luminescence (AID 1935); assay type: functional; conditions: Homo sapiens;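 note: BJ fibroblasts immortalized with TERT plus LT and ST oncogenes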
[16] = inhibitors of firefly luciferase expression or activity, dose response, H4 neuroglioma cells, luminescence (AID 1990); assay type: functional, cell-based
BJ [17] = assay: cytotoxicity toward BJ-TERT fibroblasts, dose response, cell-based, RAS-independent, luminescence (AID 1933); assay type: functional; conditions: Homo sapiens
HEK293 = assay: inhibitors of LMP1-driven NF-kB reporter, dose response, cell-based, HEK293, luciferase, cherry-pick (AID 588343); assay type: functional; conditions: Homo sapiens
[18] = A Cell Based Secondary Assay To Explore Cytotoxicity of Compounds that Sensitize Mycobacterium Tuberculosis to Beta-Lactam Antibiotics.; assay type: functional

Sequence of Nonstructural protein 1 (Q194T2 whole entry): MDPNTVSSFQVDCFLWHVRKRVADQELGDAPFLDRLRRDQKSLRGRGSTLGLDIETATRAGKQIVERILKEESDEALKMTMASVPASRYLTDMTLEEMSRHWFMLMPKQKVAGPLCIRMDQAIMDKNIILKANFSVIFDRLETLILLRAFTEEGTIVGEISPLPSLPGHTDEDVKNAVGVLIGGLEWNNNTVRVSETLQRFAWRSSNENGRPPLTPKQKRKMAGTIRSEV
Sequence of Peroxisome proliferator-activated receptor gamma/Nuclear receptor coactivator 3 (P37231 whole entry): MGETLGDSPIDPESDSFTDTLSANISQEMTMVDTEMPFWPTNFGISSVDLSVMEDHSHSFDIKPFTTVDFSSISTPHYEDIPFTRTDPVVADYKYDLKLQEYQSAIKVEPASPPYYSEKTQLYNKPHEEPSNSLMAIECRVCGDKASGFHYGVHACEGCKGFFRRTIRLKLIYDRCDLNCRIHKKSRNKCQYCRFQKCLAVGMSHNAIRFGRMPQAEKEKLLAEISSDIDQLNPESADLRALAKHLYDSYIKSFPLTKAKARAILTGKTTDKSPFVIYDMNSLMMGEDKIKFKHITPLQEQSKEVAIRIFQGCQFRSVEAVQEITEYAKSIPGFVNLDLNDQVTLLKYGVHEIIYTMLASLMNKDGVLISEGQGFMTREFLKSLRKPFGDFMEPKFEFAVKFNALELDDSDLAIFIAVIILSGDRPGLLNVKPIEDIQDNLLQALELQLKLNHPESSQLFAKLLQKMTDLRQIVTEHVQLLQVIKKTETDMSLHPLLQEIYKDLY
Sequence of Peroxisome proliferator-activated receptor gamma/Nuclear receptor coactivator 3 (Q9Y6Q9 whole entry, further chain): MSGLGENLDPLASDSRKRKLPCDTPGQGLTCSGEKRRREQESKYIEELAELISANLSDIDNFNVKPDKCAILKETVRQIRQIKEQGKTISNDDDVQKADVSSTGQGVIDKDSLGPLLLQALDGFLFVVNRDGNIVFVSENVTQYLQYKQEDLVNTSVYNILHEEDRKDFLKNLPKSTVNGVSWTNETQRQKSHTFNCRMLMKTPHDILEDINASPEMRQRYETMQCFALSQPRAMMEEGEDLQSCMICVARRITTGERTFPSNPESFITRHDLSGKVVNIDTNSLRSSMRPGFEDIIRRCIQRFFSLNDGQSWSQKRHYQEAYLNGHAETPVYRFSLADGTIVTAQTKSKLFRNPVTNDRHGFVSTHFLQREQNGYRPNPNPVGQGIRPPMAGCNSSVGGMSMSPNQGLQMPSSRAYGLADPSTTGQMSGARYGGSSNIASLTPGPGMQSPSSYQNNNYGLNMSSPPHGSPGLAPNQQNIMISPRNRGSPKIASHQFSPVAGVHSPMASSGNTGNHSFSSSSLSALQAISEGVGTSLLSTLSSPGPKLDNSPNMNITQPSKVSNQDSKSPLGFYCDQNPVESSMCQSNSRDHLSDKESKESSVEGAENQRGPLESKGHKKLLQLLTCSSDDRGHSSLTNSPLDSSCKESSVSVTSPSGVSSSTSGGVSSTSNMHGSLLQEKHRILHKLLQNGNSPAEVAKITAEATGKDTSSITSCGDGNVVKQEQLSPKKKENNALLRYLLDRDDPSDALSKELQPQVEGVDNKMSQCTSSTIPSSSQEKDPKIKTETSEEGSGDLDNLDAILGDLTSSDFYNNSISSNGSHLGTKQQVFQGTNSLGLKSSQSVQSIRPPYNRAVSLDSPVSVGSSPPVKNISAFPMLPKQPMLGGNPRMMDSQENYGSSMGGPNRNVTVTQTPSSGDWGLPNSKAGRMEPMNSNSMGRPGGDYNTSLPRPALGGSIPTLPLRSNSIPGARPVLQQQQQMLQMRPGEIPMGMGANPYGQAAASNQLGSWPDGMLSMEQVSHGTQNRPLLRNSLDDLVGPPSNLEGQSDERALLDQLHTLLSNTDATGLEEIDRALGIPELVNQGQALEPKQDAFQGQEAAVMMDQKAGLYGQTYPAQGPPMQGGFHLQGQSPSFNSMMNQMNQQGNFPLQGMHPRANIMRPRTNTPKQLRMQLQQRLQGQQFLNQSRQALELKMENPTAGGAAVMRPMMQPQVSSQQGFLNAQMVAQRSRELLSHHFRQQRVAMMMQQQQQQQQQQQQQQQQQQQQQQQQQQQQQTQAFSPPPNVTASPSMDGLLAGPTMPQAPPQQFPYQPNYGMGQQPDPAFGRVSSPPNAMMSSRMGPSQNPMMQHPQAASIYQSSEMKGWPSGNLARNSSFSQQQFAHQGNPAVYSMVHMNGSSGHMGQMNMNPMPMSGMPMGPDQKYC
Sequence of Peroxisome proliferator-activated receptor gamma/Nuclear receptor coactivator 1 (P37231 whole entry): as the sequence (P37231 whole entry) above
Sequence of Peroxisome proliferator-activated receptor gamma/Nuclear receptor coactivator 1 (Q15788 whole entry, further chain): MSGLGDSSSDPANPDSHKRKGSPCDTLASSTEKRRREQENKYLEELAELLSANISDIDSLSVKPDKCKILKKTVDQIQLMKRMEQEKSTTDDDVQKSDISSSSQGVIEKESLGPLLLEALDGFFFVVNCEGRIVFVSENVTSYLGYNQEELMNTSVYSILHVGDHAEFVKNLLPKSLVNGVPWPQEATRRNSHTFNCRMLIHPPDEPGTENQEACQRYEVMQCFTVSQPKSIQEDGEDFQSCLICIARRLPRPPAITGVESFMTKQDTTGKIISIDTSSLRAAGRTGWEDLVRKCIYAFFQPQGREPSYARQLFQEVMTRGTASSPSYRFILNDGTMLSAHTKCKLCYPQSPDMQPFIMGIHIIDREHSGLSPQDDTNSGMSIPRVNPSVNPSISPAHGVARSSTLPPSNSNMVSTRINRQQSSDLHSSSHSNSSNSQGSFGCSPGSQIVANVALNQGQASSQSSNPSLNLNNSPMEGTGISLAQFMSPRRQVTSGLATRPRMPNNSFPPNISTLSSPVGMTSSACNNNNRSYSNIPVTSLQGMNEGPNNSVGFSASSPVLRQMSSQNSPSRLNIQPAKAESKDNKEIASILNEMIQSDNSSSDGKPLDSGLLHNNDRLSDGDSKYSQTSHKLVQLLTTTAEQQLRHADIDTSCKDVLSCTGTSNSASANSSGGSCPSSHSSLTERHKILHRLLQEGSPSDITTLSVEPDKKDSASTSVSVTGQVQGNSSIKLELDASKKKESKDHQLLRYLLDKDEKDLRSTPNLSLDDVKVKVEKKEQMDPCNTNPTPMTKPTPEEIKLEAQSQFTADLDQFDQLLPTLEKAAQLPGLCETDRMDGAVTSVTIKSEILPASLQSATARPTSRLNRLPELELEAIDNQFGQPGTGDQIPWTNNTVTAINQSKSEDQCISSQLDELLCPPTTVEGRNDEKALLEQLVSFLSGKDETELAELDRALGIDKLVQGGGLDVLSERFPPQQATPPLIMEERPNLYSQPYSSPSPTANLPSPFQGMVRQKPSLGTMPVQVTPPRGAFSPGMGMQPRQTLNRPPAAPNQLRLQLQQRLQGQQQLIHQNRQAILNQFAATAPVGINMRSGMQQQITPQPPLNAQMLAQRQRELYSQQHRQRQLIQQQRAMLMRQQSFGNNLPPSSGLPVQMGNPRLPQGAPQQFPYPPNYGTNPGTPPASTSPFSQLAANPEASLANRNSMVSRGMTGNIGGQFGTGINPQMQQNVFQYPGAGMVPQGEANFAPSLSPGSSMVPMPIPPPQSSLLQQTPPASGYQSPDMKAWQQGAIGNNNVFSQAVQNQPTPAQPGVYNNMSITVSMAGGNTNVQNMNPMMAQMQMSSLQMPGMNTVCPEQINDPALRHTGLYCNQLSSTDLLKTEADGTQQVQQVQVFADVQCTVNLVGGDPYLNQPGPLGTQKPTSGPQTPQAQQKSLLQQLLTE

**Q.** For `CC1(C)CC(=O)C2=C(C1)N(c1ccc(F)cc1)C(=O)CC2c1ccsc1` (stereo not given), which EC50 [1] is on record?
**A.** > 50 µM (active)

**Q.** For `CC(=O)Nc1nc(-c2cccc3ccccc23)cs1`, which EC50 (cells [2]) is on record?
**A.** 0.264 µM (active)

**Q.** And the EC50 [3]?
**A.** > 60 µM (not active)

**Q.** And the EC50 [4]?
**A.** < 0.1 µM (active)

**Q.** Which EC50 [1] does the source give for `Cc1ccccc1Oc1ccc(Oc2ccccc2C)nn1` here?
**A.** > 50 µM (active)

**Q.** With `Cc1ccc2nc(-c3ccc(NC(=O)c4cccnc4)cc3)oc2c1` as the molecule, how does the AC50 (INS1) read?
**A.** 4.63 µM (active)

**Q.** What about the AC50 [5] of the same molecule?
**A.** 29.2 µM (active)

**Q.** For `O=C(Nc1ccc(N2CCOCC2)c(Cl)c1)c1ccccc1F`, which EC50 [1] is on record?
**A.** > 50 µM (active)

**Q.** Which EC50 [6] does the source give for `C=CCn1c(NC(C)c2cc(Cl)ccc2O)nc2ccccc21` (stereo not given) here?
**A.** 13.3 µM (not active)

**Q.** What about the EC50 [7] of the same molecule?
**A.** > 79.4 µM (not active)

**Q.** And the EC50 [8]?
**A.** > 79.4 µM (inactive)

**Q.** And the EC50 [1]?
**A.** > 50 µM (active)

**Q.** With `CCOC(=O)c1ccc2nc(NC(=O)c3ccco3)sc2c1` as the molecule, how does the AC50 [9] read?
**A.** 26 µM (active)

**Q.** Which results are given for `C(=N\Nc1nc2ccccc2[nH]1)/c1cccc2cccnc12`?
**A.** EC50 (cells [10]): 97.6 µM (active); EC50 [11]: 2.33 µM (active); EC50 (BJ [12]): 3.01 µM (active); EC50 (cells [13]): 66.2 µM (active); EC50 [14]: > 120 µM (not active); IC50 (Nonstructural protein 1): 13.4 µM (active); EC50 (BJ [15]): 3.36 µM (active); EC50 [16]: 5.09 µM (active); EC50 (BJ [17]): 1.53 µM (active); AC50 (HEK293): 2.96 µM (active); AC50 [9]: 26 µM (active)

**Q.** For `Cn1c(/C=N/c2nc3ccccc3[nH]2)nc2ccccc21`, which CC50 [18] is on record?
**A.** 37.4 µM (active)

From ChEMBL document CHEMBL1201862, “PubChem BioAssay data set” (2004)
